Assay results published in patent US20170067909A1, “ASSAY-READY RECOMBINANT CELLS TRANSIENTLY OVEREXPRESSING GENES ENCODING DRUG TRANSPORTER PROTEINS AND/OR DRUG METABOLIZING ENZYMES” (Corning Incorporated, priority 2012, published 2017).
Changes are numbered by the printed parent chain. Like-named read-outs stand apart in the source and are kept apart here. One block for each compound: values may come before it.

Columns and labels:
[1] = tested on: dog Oatp1b4
[2] = target: T1, rat Oatp1b2 (Rattus norvegicus, UniProt Q9QZX8)
T1 sequence (Q9QZX8 1-687): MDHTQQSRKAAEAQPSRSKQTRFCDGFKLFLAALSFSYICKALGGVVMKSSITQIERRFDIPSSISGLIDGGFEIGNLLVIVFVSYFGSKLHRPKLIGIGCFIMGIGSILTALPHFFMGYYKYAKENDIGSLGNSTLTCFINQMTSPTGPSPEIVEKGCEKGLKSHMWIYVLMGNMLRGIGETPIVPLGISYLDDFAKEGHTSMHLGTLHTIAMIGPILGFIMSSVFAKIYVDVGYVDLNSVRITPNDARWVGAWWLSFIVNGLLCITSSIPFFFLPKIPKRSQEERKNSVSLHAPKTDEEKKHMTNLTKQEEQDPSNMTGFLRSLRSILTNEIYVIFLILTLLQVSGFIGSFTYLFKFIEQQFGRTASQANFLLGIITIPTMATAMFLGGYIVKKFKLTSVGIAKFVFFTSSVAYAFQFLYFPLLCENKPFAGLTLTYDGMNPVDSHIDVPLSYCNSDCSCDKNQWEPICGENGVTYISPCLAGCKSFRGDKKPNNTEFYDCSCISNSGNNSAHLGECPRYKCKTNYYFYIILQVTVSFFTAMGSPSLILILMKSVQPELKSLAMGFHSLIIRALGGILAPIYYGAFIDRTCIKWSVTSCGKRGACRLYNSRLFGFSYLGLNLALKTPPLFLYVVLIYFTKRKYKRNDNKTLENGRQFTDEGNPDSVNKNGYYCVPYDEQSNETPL

[3] = target: T2, OCT1 (Homo sapiens, UniProt O15245)
[4] = target: T3, OCT2 (Homo sapiens, UniProt O15244)
[5] = target: T2, OCT1; conditions: read-out: IC50, Literature Report; substrate Metformin; HEK293 Cells; Sumito I, et al., JPET, 2011; cited from earlier work
[6] = target: T3, OCT2; conditions: read-out: IC50, Literature Report; substrate Metformin; HEK293 Cells; Sumito I, et al., JPET, 2011; cited from earlier work
[7] = target: T4, OAT3 (Homo sapiens, UniProt Q8TCC7); conditions: read-out: Km, Literature Report; HEK293 cells; Ueo H, et al., Biochem Pharmacol., 2005; cited from earlier work
T4 sequence (Q8TCC7 1-542): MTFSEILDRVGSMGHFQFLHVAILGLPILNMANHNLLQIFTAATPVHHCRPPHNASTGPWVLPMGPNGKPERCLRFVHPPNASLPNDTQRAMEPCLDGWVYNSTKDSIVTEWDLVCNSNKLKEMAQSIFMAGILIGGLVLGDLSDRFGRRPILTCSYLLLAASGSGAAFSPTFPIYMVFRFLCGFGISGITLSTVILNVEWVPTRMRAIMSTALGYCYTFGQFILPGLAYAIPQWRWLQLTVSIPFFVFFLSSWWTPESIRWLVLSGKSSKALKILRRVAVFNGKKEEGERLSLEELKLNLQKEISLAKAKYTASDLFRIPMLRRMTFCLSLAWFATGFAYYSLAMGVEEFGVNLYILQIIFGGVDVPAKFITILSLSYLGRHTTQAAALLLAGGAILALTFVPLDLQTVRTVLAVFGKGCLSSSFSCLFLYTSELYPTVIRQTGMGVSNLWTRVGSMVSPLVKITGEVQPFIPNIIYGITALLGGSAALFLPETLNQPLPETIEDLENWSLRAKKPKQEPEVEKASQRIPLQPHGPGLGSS

[8] = target: T4, OAT3; conditions: read-out: Km, SLC Transporter Cells; substrate 0.5 to 32 μM, incubation 1 min
[9] = target: T5, MATE1 (Homo sapiens, UniProt Q96FL8); conditions: 5 min, 10 µM, pH 7.4
T5 sequence (Q96FL8 1-570): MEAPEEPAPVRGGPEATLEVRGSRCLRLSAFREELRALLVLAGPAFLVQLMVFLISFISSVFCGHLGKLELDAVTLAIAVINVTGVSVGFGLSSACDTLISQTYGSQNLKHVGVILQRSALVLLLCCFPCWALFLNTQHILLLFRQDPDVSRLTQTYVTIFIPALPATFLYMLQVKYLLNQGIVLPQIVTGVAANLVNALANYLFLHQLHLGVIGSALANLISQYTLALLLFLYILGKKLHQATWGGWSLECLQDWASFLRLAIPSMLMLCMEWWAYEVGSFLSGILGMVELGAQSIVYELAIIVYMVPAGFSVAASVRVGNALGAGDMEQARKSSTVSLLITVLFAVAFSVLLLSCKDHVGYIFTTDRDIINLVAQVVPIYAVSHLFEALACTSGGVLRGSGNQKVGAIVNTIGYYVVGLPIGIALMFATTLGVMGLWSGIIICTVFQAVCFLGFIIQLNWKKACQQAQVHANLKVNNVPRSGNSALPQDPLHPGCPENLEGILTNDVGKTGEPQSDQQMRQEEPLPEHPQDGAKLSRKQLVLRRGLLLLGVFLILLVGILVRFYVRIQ

[10] = target: MATE2K (Homo sapiens, UniProt Q86VL8); conditions: 5 min, 10 µM, pH 7.4
[11] = target: T6, OATP1B1*5 (Homo sapiens, UniProt Q9Y6L6, V174A)
T6 sequence (Q9Y6L6 1-691 V174A): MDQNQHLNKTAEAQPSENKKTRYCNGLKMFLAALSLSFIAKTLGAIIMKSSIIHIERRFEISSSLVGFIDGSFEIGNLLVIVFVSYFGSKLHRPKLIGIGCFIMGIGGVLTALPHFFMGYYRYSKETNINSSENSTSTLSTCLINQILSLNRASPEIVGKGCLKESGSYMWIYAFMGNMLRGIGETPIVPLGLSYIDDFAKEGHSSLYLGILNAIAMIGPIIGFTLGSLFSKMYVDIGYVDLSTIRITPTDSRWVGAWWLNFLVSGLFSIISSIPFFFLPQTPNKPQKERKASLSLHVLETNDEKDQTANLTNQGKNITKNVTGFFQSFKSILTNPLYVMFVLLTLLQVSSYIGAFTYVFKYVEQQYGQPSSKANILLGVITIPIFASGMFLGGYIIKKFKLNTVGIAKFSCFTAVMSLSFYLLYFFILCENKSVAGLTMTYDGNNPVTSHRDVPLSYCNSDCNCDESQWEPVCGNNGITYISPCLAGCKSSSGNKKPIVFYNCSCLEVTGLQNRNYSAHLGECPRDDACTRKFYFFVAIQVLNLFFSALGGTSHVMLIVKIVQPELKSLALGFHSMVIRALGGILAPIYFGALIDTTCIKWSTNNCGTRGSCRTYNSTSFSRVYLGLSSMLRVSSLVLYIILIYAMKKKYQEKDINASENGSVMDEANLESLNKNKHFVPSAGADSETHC

[12] = target: T7, OATP1B1*15 (Homo sapiens, UniProt Q9Y6L6, N130D/V174A); conditions: for uptake reduced to: human
T7 sequence (Q9Y6L6 1-691 N130D/V174A): T6 sequence (Q9Y6L6 1-691 V174A) with N130D

[13] = tested on: monkey Oatp1b1
[14] = HEK-293 cells overexpressing the transporter

T3 sequence (O15244 whole entry): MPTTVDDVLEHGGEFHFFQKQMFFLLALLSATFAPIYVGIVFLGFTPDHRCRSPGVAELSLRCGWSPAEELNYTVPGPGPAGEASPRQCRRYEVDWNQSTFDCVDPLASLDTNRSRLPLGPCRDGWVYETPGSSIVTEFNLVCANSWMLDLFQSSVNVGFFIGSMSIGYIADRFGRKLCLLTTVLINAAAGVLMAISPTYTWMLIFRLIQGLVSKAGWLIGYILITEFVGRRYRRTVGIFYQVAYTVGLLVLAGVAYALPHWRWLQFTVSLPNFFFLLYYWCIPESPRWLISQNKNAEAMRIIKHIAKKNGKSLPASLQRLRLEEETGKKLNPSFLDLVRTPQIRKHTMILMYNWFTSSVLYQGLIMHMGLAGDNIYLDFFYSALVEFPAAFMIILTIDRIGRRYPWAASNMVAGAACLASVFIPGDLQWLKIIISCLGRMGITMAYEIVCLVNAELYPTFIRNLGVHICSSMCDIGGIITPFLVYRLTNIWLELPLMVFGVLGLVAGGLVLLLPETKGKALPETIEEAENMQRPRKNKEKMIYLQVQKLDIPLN
T2 sequence (O15245 whole entry): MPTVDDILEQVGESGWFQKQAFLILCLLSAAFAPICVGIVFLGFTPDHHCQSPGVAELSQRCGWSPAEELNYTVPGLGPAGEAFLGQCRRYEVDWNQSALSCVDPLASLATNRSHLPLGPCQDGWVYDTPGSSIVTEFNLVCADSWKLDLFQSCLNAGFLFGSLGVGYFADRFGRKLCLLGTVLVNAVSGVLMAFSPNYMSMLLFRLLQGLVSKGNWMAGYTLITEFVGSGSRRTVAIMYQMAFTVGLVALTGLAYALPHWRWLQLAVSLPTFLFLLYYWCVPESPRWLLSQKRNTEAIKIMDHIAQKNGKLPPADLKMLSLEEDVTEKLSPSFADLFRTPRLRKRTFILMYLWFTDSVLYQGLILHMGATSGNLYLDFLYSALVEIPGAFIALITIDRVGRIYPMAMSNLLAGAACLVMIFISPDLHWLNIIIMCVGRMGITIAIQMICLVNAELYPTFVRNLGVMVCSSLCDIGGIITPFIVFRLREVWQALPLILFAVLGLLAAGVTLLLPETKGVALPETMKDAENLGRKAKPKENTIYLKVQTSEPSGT
MATE2K, sequence (Q86VL8 1-566 isoform Q86VL8-3): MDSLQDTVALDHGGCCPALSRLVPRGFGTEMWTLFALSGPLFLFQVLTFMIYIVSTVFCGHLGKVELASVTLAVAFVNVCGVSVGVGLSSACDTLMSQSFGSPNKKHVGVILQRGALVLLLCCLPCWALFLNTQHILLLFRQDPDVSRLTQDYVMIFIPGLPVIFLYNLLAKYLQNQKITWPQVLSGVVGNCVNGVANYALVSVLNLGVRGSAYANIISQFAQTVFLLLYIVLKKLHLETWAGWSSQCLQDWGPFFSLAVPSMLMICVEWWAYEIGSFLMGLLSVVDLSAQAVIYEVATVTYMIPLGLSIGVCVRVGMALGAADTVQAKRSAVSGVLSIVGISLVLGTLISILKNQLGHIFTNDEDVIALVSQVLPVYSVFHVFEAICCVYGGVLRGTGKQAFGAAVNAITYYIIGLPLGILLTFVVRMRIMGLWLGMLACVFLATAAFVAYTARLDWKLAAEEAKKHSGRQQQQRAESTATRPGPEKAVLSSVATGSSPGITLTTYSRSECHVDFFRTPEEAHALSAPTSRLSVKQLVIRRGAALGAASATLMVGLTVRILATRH

SMILES: CSCC[C@H](NC(=O)[C@H](Cc1ccc(OS(=O)(=O)O)cc1)NC(=O)[C@@H](N)CC(=O)O)C(=O)NCC(=O)N[C@@H](Cc1c[nH]c2ccccc12)C(=O)N[C@@H](CCSC)C(=O)N[C@@H](CC(=O)O)C(=O)N[C@@H](Cc1ccccc1)C(N)=O [CCK-8, cholecystokinin]
- uptake of substrate (in words) [1, 14]: significant uptake
- uptake of substrate (in words) [2, 14]: significant uptake

SMILES: CN/C(=N/CCSCc1nc[nH]c1C)NC#N [Cimetidine]
- IC50 [3]: 230 µM
- IC50 [4]: 195 µM
- IC50 [5]: 104 µM
- IC50 [6]: 124 µM

SMILES: C[C@]12CC[C@@H]3c4ccc(OS(=O)(=O)O)cc4CC[C@H]3[C@@H]1CCC2=O [E3S, Estrone-3-sulfate]
- Km [7]: 6.3 µM
- Km [8]: 4 µM

Other lines, results leading:

- UPTAKE ACTIVITY SLC transporter [9]: 71.4 pmol/mg/min
- Uptake Ratio [9]: 12
- UPTAKE ACTIVITY SLC transporter [10]: 33.5 pmol/mg/min
- Uptake Ratio [10]: 6.5
SMILES: CN(C)C(=N)N=C(N)N [Metformin]

- uptake activity / transport compared to OATP1B1*1a cells (in words) [11]: Significant decrease in uptake activity
- uptake activity / transport compared to OATP1B1*1a cells (in words) [12]: Significant decrease in uptake activity
SMILES: CC(C)c1c(C(=O)Nc2ccccc2)c(-c2ccccc2)c(-c2ccc(F)cc2)n1CC[C@@H](O)C[C@@H](O)CC(=O)O [atorvastatin]

- uptake reduced to [12]: less than 5%
SMILES: CC(C)n1c(/C=C/C(O)CC(O)CC(=O)O)c(-c2ccc(F)cc2)c2ccccc21 (stereo not shown) [fluvastatin]

- uptake reduced to [12]: 40%
SMILES: O=C(O)C[C@H](O)C[C@H](O)/C=C/c1c(C2CC2)nc2ccccc2c1-c1ccc(F)cc1 [pitavastatin]

- uptake of substrate (in words) [13]: significant uptake
- uptake of substrate (in words) [1]: significant uptake
- uptake of substrate (in words) [2]: significant uptake
SMILES: CC(C)c1nc(N(C)S(C)(=O)=O)nc(-c2ccc(F)cc2)c1/C=C/[C@@H](O)C[C@@H](O)CC(=O)O [rosuvastatin]
